# According to US6214859A, “Ethylamine derivatives” (Fujimoto Brothers Co., Ltd., priority 1997, dated 2001):
# Experiments:
# [1] = tested on: dopamine release, striatum; test: Release of biogenic amines from brain tissue: dopamine, striatum; assay type: in vivo, Wistar rats
# Description: (§1) The method described in Life Sci., 56, 611-620 (1995) was used. After Wistar rats were decapitated, appropriate brain samples, which were striatun, substantia nigra, tuberculum olfactorium, locus coeruleus and raphe, were removed quickly and soaked in oxygenated (95% O2 and 5% CO2) Krebs solution at 37° C. The composition of Krebs solution was as follows in […]: NaCl 111, KCl 4.7, CaCl2 2.5, MgSO4 1.64, NaHCO3 25, KH2 PO4 1.2, glucose 11, 50 mg/l ascorbic add and 20 mg/l EDTA-2 Na. The preparations, soaked in one organ bath, were as follows: 1) four pieces of striatum (each halved), 2) four pieces of substantia nigra, 3) four pieces of tuberculum olfactorium; 4) eight pieces of locus coeruleus; 5) eight pieces of raphe. After incubation of the appropriate tissue for 20 min, the Krebs solution was replaced, the tissue soaked for 20 min in Krebs solution dissolving the compounds of this invention and the amount of biogenic amine released during this period of time was estimate. The compounds of this invention and PPAP, control compound, were dissolved in saline and were administered subcutaneously before 30 min to removing brain sample. For measuring noradrenaline and dopamine, samples were purified on 60 mg alumina containing micro columns (BDH Chemicals Ltd.) according to the method described in J. Pharmacol. Exp. Ther., 138, 360-372 (1962) For measuring serotonin, samples were purified on 15 mg Sephadex G-10 micro columns (Pharmacia). Dopamine, noradrenaline and serotonin were determined by high performance liquid chromatography (Waters 746 data module) with electrochemical detection (Waters 460 electrochemical detector). Waters Resolve 5μ Spherical C18 3.9×150 mm column was used as separating column and triethylamine-phosphate buffer (pH 5.2), containing 200 mg/l octane sulfonate sodium and 18 mg/l EDTA-2 Na with 6% acetonitrile, was used as mobile phase. The release amount of appropriate amine was noted as nmol/g tissue released for 20 min. deference of means tested by Student's t-test and significant level was set at P<.05.
# [2] = tested on: dopamine release, substantia nigra; test: Release of biogenic amines from brain tissue: dopamine, substantia nigra; assay type: in vivo, Wistar rats
# Description: as §1
# [3] = tested on: dopamine release, tuberculum olfactorium; test: Release of biogenic amines from brain tissue: dopamine, tuberculum olfactorium; assay type: in vivo, Wistar rats
# Description: as §1
# [4] = tested on: noradrenaline release, locus coeruleus; test: Release of biogenic amines from brain tissue: noradrenaline, locus coeruleus; assay type: in vivo, Wistar rats
# Description: as §1
# serotonin release, raphe = test: Release of biogenic amines from brain tissue: serotonin, raphe; assay type: in vivo, Wistar rats
# Description: as §1
# human platelet MAO-B = molecular target: T1, human platelet MAO-B (Homo sapiens, UniProt P27338); test: biochemical; conditions: 10^-5 M; read-out: Inhibition rate of MAO-B
# T1 construct: The suspension was used as enzyme for MAO activity assay in blood platelets; from tissue; host or cells: human blood platelets (frozen, thawed and sonicated platelet rich plasma)
# T1 sequence (P27338 1-520): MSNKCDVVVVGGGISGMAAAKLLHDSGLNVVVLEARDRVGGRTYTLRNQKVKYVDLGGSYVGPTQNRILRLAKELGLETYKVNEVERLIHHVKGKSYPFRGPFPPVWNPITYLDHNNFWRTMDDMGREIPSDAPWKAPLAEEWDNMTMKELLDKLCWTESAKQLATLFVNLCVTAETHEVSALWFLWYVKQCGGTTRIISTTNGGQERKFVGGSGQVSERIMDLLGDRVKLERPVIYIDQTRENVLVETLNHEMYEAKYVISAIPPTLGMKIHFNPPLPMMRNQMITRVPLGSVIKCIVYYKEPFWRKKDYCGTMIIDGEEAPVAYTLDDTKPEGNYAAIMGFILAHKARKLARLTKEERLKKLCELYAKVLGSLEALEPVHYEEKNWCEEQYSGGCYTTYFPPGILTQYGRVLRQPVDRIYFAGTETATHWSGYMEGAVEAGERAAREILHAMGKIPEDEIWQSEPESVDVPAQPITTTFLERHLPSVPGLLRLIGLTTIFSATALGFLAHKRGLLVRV
# Description: Human blood added with 3.8% citric acid was centrifuged at 950 rpm for 10 min and platelet rich plasma (PRP) was obtained. The residual blood cell was centrifuged at 3,000 rpm for 10 min and platelet poor plasma (PPP) was obtained. After blood platelets were measured from a part of PRP, PRP and PPP were frozen at -20° C. They were thawed and were sonicated to be dispersed and suspended when MAO activity was measured. The suspension was used as enzyme for MAO activity assay in blood platelets. In addition, almost all of MAO in blood platelets have been known to be B type.
# MAO-B activity was determined according to the method described in Biochem. Pharmacol., 14, 1684-1685 (1965). […] The mixture was incubated at 37° C. for 5 min. After 80 μl of PRP or PPP was added to it, the mixture was incubated at 37° C. for 20 min. Thereafter, 120 μl of substrate (0.33 mg/ml kynuramine dihydrobromide) was added thereto. After incubation at 37° C. for 30 min, 800 μl of 10% trichloroacetic acid were added to stop the reaction and the solution was centrifuged at 3,000 rpm for 10 min. To 1 ml of the supernatant, 2 ml of 1 N NaOH was added and fluorescence of the solution was measured at Ex 312 nm and Em 380 nm. PRP was prepared to 250,000 cell/μl as amounts of blood platelets with […] phosphate buffer solution and 4-hydroxyquinoline was used as standard for measurement.
# [5] = Toxicity screening using primary cultured hepatocyte (LDH release); assay type: cell-based, rat; conditions: rat, primary hepatocytes, 24 hr, control 0.5% saline or 0.5% DMSO, read-out: Percent control of LDH release
# Description: The hepatocytes was prepared from rat liver by collagenase perfusion method and suspension containing 5×10^5 cells/ml were prepared. After cultivation for 24 hr, the suspension was exchanged to the William's Medium E (GIBCO BRL) containing 10 or 100 μM of the compounds of this invention. After cultivation for 24 hr, the activity of lactate dehydrogenase (LDH) released in the medium was measured.
# [6] = tested on: rats reduced learning ability by tetrabenazine; test: Conditioned avoidance task in the shuttle box (tetrabenazine-treated rats); assay type: in vivo, rat; conditions: tetrabenazine 1 mg/kg s.c., significance and direction
# Description: The method described in Life Sci., 58, 817-827 (1996) was used. The effects on conditioned avoidance reflex (CARs) was analyzed in the shuttle box using male and female rats (weighing 200-220 g) whose leaning abilities were reduced by treatment of tetrabenazine. The instrument was constructed, according to the device described in Psychopharmacologia 10, 1-5 (1966) by the Research Institute for Electrical Industry (Budapest, Hungary). The male and female rats (weighing 200-220 g) were trained to cross the berrier under the influence of a conditioned stimulus (CS) (light flash and buzzer sounds). […] And the performance which was not related to this condition was noted as an intersignal reaction (IR). The rats were trained with 100 trials per day for 5 days. One trial consisted of 15 sec intertrial interval. The saline solution of tetrabenazine was administered at a dose of 1 mg/kg subcutaneously before one hour prior to the test and then the solution of the compounds of this invention were administered at the doses of 1, 2, 2.5 and 5 mg/kg subcutaneously with the simultaneous administration of tetrabenazine. The nmbers of CARs, EFs and IRs were automatically counted and evaluated by multi-way analysis of variance (ANOVA).
SMILES,"Release of dopamine, striatum ([1]; 0.25 mg/kg s.c.)","Release of dopamine, striatum ([1]; 1.00 mg/kg s.c.)","Release of dopamine, substantia nigra ([2]; 0.25 mg/kg s.c.)","Release of dopamine, substantia nigra ([2]; 1.00 mg/kg s.c.)","Release of dopamine, tuberculum olfactorium ([3]; 0.25 mg/kg s.c.)","Release of dopamine, tuberculum olfactorium ([3]; 1.00 mg/kg s.c.)","Release of noradrenaline, locus coeruleus ([4]; 0.25 mg/kg s.c.)","Release of noradrenaline, locus coeruleus ([4]; 1.00 mg/kg s.c.)","Release of serotonin, raphe (serotonin release, raphe; 0.25 mg/kg s.c.)","Release of serotonin, raphe (serotonin release, raphe; 1.00 mg/kg s.c.)",inhibition at 10 µM (human platelet MAO-B) [%],"activity at 24 h, 10 µM [5] [%]","activity at 24 h, 100 µM [5] [%]",Condition Avoidance Reflex (CARs) ([6]; 1 mg/kg s.c.),Condition Avoidance Reflex (CARs) ([6]; 5 mg/kg s.c.),Escape Failures (EFs) ([6]; 5 mg/kg s.c.),also measured
"CCCNC(CCC)Cc1cccc2ccccc12 (stereo not shown) [Compound No. 5, 1-(1-Naphthyl)-2-propylaminopentane]","4.3 ± 0.14 nmol/g tissue, for 20 min","3.2 ± 0.14 nmol/g tissue, for 20 min","5.6 ± 0.18 nmol/g tissue, for 20 min","4.4 ± 0.16 nmol/g tissue, for 20 min","6.0 ± 0.16 nmol/g tissue, for 20 min","4.6 ± 0.13 nmol/g tissue, for 20 min","3.9 ± 0.25 nmol/g tissue, for 20 min","4.4 ± 0.50 nmol/g tissue, for 20 min","0.425 ± 0.02 nmol/g tissue, for 20 min","0.571 ± 0.01 nmol/g tissue, for 20 min",17.3,111 ± 4.02,195 ± 9.16,–,–,–,–
CCCC(Cc1ccc2ccccc2c1)NCC (stereo not shown) [Compound No. 6],–,"3.6 ± 0.12 nmol/g tissue, for 20 min",–,"6.7 ± 0.26 nmol/g tissue, for 20 min",–,"5.3 ± 0.19 nmol/g tissue, for 20 min",–,"3.1 ± 0.05 nmol/g tissue, for 20 min",–,"0.708 ± 0.07 nmol/g tissue, for 20 min",24.5,–,–,**** .Arrow-up bold.,**** .Arrow-up bold.,* .dwnarw.,Escape Failures (EFs) ([6]; 1 mg/kg s.c.): * .dwnarw.
"CCCNC(CCC)Cc1cccc2c1OCO2.Cl (stereo not shown) [Compound No. 28, 1-(1,3-Benzodioxol-4-yl)-2-propylaminopentane Hydrochloride]","3.4 ± 0.16 nmol/g tissue, for 20 min","4.0 ± 0.18 nmol/g tissue, for 20 min","6.1 ± 0.35 nmol/g tissue, for 20 min","5.4 ± 0.27 nmol/g tissue, for 20 min","3.8 ± 0.22 nmol/g tissue, for 20 min","4.6 ± 0.22 nmol/g tissue, for 20 min","3.6 ± 0.35 nmol/g tissue, for 20 min","3.7 ± 0.10 nmol/g tissue, for 20 min","1.031 ± 0.03 nmol/g tissue, for 20 min","1.017 ± 0.06 nmol/g tissue, for 20 min",22.2,93 ± 6.92,148 ± 6.55,* .Arrow-up bold.,**** .Arrow-up bold.,*** .dwnarw.,"Condition Avoidance Reflex (CARs) ([6]; 2.5 mg/kg s.c.): **** .Arrow-up bold.; Escape Failures (EFs) ([6]; 2.5 mg/kg s.c.): **** .dwnarw.; Release of dopamine, striatum ([1]; 5.00 mg/kg s.c.): 3.1 ± 0.13 nmol/g tissue, for 20 min; Release of dopamine, substantia nigra ([2]; 5.00 mg/kg s.c.): 4.9 ± 0.17 nmol/g tissue, for 20 min; Release of dopamine, tuberculum olfactorium ([3]; 5.00 mg/kg s.c.): 3.1 ± 0.14 nmol/g tissue, for 20 min; Release of noradrenaline, locus coeruleus ([4]; 5.00 mg/kg s.c.): 3.9 ± 0.10 nmol/g tissue, for 20 min; Release of serotonin, raphe (serotonin release, raphe; 5.00 mg/kg s.c.): 1.436 ± 0.01 nmol/g tissue, for 20 min"
